Data: the supplement of paper PMC10307832

The cell lines below were run with CC(C)C[C@H](NC(=O)[C@H](CCc1ccccc1)NC(=O)CN1CCOCC1)C(=O)N[C@@H](Cc1ccccc1)C(=O)N[C@@H](CC(C)C)C(=O)[C@@]1(C)CO1 [Carfilzomib] + COc1cccc2cc(-c3nc([C@H]4CC[C@H](C(=O)O)CC4)n4ncnc(N)c34)[nH]c12 [OSI-027] (partner 0.5 µM) (assay: relative viability (nuclei count vs DMSO), 5 days (fraction); higher = more cells survive). Conditions: first compound 0.001 µM.
How it was run: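 For relative viability, nuclei counts in treated wells were divided by those in vehicle wells. Lung cancer cell lines had been pin-tool dosed in 1536-well plates the day after seeding and cultured for 5 days, then fixed and stained in one step (final 0.05% Triton X-100, 1% formaldehyde, 1 ug/ml Hoechst) and imaged at 4×. Doses were one drug alone or a fixed anchor-drug dose plus five library-drug doses (not always all listed) in √10 steps, and values are duplicate-plate medians.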

In order of falling relative viability:
1. HCC-366  0.914
2. HOP-62  0.892
3. LC-2-ad  0.83
4. LXF-289  0.818
5. HCC-827  0.796
6. NCI-H1563  0.775
7. LOU-NH91  0.77
8. NCI-H1792  0.727
9. HCC-15  0.706
10. EKVX  0.689
11. NCI-H2342  0.663
12. NCI-H522  0.585
13. H3255  0.581
14. HARA  0.537
15. HCC-44  0.48
16. LCLC-103H  0.462
17. LCLC-97TM1  0.459
18. SW 900  0.451
19. NCI-H1623  0.449
20. EMC-BAC-2  0.378
21. HCC-78  0.332
22. LU99A  0.293
23. EPLC-272H  0.284
24. LK-2  0.223

Same assay, conditions: first compound 0.003162 µM

In order of rising relative viability:
1. LK-2  0.201
2. NCI-H1648  0.272
3. ABC-1  0.289
4. EPLC-272H  0.291
5. LU99A  0.309
6. BEN  0.313
7. HCC-78  0.318
8. SW 900  0.362
9. EMC-BAC-2  0.448
10. NCI-H1623  0.462
11. LCLC-103H  0.463
12. LCLC-97TM1  0.512
13. H3255  0.536
14. A-427  0.542
15. HARA  0.564
16. HCC-44  0.564
17. ChaGo-K-1  0.576
18. NCI-H2342  0.621
19. CAL-12T  0.708
20. NCI-H1563  0.71
21. NCI-H522  0.731
22. EKVX  0.754
23. NCI-H1792  0.794
24. 201T  0.795
25. HCC-15  0.801
26. LOU-NH91  0.801
27. COR-L 105  0.82
28. HCC-827  0.829
29. HOP-62  0.899
30. LXF-289  0.9
31. COR-L23  0.908
32. HCC-366  1.02
33. LC-2-ad  1.02

Same assay, conditions: first compound 0.01 µM

In order of rising relative viability:
1. SW 900  0.114
2. LK-2  0.166
3. EPLC-272H  0.248
4. NCI-H1648  0.256
5. ABC-1  0.276
6. BEN  0.3
7. LU99A  0.317
8. HCC-78  0.387
9. A-427  0.395
10. EMC-BAC-2  0.409
11. NCI-H1623  0.46
12. LCLC-97TM1  0.533
13. LCLC-103H  0.541
14. HCC-44  0.574
15. HOP-62  0.575
16. NCI-H522  0.634
17. H3255  0.65
18. ChaGo-K-1  0.659
19. HARA  0.675
20. NCI-H1792  0.684
21. COR-L 105  0.699
22. LOU-NH91  0.711
23. NCI-H2342  0.723
24. LXF-289  0.749
25. COR-L23  0.762
26. HCC-15  0.763
27. NCI-H1563  0.797
28. EKVX  0.834
29. CAL-12T  0.85
30. HCC-827  0.872
31. 201T  0.884
32. LC-2-ad  0.901
33. HCC-366  1.12

Same assay, conditions: first compound 0.03162 µM

In order of rising relative viability:
1. HARA  0.0444
2. SW 900  0.0786
3. EPLC-272H  0.119
4. CAL-12T  0.131
5. COR-L23  0.144
6. A-427  0.145
7. ABC-1  0.158
8. LXF-289  0.163
9. LK-2  0.18
10. EMC-BAC-2  0.242
11. NCI-H1648  0.255
12. LOU-NH91  0.259
13. COR-L 105  0.271
14. LU99A  0.275
15. HCC-15  0.279
16. BEN  0.294
17. LCLC-97TM1  0.298
18. HOP-62  0.317
19. HCC-44  0.338
20. HCC-78  0.359
21. NCI-H1623  0.374
22. 201T  0.437
23. NCI-H522  0.461
24. LCLC-103H  0.483
25. ChaGo-K-1  0.554
26. H3255  0.584
27. EKVX  0.601
28. NCI-H2342  0.632
29. LC-2-ad  0.633
30. NCI-H1792  0.633
31. NCI-H1563  0.705
32. HCC-827  0.746
33. HCC-366  0.839

Same assay, conditions: first compound 0.1 µM

In order of falling relative viability:
1. NCI-H1563  0.586
2. NCI-H1792  0.519
3. HCC-827  0.511
4. NCI-H2342  0.495
5. NCI-H522  0.456
6. LOU-NH91  0.322
7. EKVX  0.315
8. NCI-H1623  0.312
9. 201T  0.31
10. NCI-H1648  0.298
11. LCLC-103H  0.277
12. BEN  0.263
13. LCLC-97TM1  0.246
14. H3255  0.237
15. HCC-78  0.227
16. HCC-44  0.217
17. LC-2-ad  0.207
18. EMC-BAC-2  0.197
19. LU99A  0.192
20. COR-L 105  0.191
21. LK-2  0.181
22. ChaGo-K-1  0.176
23. ABC-1  0.171
24. SW 900  0.135
25. A-427  0.132
26. CAL-12T  0.131
27. HOP-62  0.083
28. HCC-15  0.0802
29. EPLC-272H  0.0723
30. HARA  0.0712
31. COR-L23  0.0646
32. LXF-289  0.0509
33. HCC-366  0.035
